From paper PMC12686049 (2025) come the findings set out here.

Experiment [1] has as its system A1-G (DNA, G4) CCGGGAGGAATCATGTAAGGGGTCCCGGGAACGGGCAAGGGGCTTTTCACC
Put plainly: CD titration at 295 nm, Hill fit. The note with it: 100 mM KCl; 10 mM sodium cacodylate, pH 7.0, 25 °C; 10 µM DNA; apparent, half-maximal ellipticity change; Hill coefficient 2.1 ± 0.9.

Experiment [2] has as its system A2-G (DNA, G4) GGGTGGGGGTGATAAACGGGGCATCAGGGACACATTGCTGGGTCGGGTCGT
Put plainly: CD titration at 295 nm, Hill fit. The note with it: 100 mM KCl; 10 mM sodium cacodylate, pH 7.0, 25 °C; 10 µM DNA; apparent, half-maximal ellipticity change; Hill coefficient 2.8 ± 1.5.

For experiment [3], the system named is rodA (DNA, G4) GGGGTAGGGAACAGGGTCCCGGG
Put plainly: thioflavin T fluorescence. As to conditions: 100 mM KCl; 10 mM sodium cacodylate, pH 7.4; 4 µM DNA, 1 µM dye; background without DNA 1154.

The subject of experiment [4] is arp2 (DNA, G4) GGGGAGGGGACCCTTGCATGGAGGGGGGG
The experiment is described as follows: thioflavin T fluorescence. As to conditions: 100 mM KCl; 10 mM sodium cacodylate, pH 7.4; 4 µM DNA, 1 µM dye; background without DNA 1154.

Experiment [5] concerns ags1 (DNA, G4) GGGCTTGAGGGGAACTGGGAGGAGCGGG
Put plainly: thioflavin T fluorescence. The note with it: 100 mM KCl; 10 mM sodium cacodylate, pH 7.4; 4 µM DNA, 1 µM dye; background without DNA 1154.

The test system of experiment [6] is cyp51A (DNA, G4) GGGTGGGGGTGATAAACGGGGCATCAGGG
Put plainly: thioflavin T fluorescence. As to conditions: 100 mM KCl; 10 mM sodium cacodylate, pH 7.4; 4 µM DNA, 1 µM dye; background without DNA 1154.

Experiment [7] relates to cyp51B (DNA, G4) GGGGTAGGGGGGCCCAGGG
The experiment is described as follows: thioflavin T fluorescence. As to conditions: 100 mM KCl; 10 mM sodium cacodylate, pH 7.4; 4 µM DNA, 1 µM dye; background without DNA 1154.

In experiment [8] the test system is hmg1 (DNA, G4) GGGCGGCAGGGACAGGGGCAACTTCGGG
Put plainly: thioflavin T fluorescence. As to conditions: 100 mM KCl; 10 mM sodium cacodylate, pH 7.4; 4 µM DNA, 1 µM dye; background without DNA 1154.

Experiment [9] deals with atrR (DNA, G4) GGGGGAGGGTGCGGGATGCTCTTCGGG
The experiment is described as follows: thioflavin T fluorescence. The note with it: 100 mM KCl; 10 mM sodium cacodylate, pH 7.4; 4 µM DNA, 1 µM dye; background without DNA 1154.

The subject of experiment [10] is erg1 (DNA, G4) GGGCGACGGGGAAGAGGTAGGGAGGG
The experiment is described as follows: thioflavin T fluorescence. The note with it: 100 mM KCl; 10 mM sodium cacodylate, pH 7.4; 4 µM DNA, 1 µM dye; background without DNA 1154.

Experiment [11] relates to erg5 (DNA, G4) GGGATTAGGGTATGCCTCAGGGTCATGGG
Put plainly: thioflavin T fluorescence. As to conditions: 100 mM KCl; 10 mM sodium cacodylate, pH 7.4; 4 µM DNA, 1 µM dye; background without DNA 1154.

Experiment [12] deals with dppV (DNA, G4) GGGACGGCGTTGGGGGGGGGAAGGG
Put plainly: thioflavin T fluorescence. The note with it: 100 mM KCl; 10 mM sodium cacodylate, pH 7.4; 4 µM DNA, 1 µM dye; background without DNA 1154.

The test system of experiment [13] is zrfC (DNA, G4) GGGTTGGGCTGGTCGACATGTGGGCCCGGG
The experiment is described as follows: thioflavin T fluorescence. The note with it: 100 mM KCl; 10 mM sodium cacodylate, pH 7.4; 4 µM DNA, 1 µM dye; background without DNA 1154.

In experiment [14] the test system is zafA (DNA, G4) GGGCAGGGCAGAGCAGGGCAGGGG
Put plainly: thioflavin T fluorescence. The note with it: 100 mM KCl; 10 mM sodium cacodylate, pH 7.4; 4 µM DNA, 1 µM dye; background without DNA 1154.

The test system of experiment [15] is lysF (DNA, G4) GGGACGCGGGGGGCGGCATCGGGAGCGGG
Put plainly: thioflavin T fluorescence. The note with it: 100 mM KCl; 10 mM sodium cacodylate, pH 7.4; 4 µM DNA, 1 µM dye; background without DNA 1154.

In experiment [16] the test system is hscA (DNA, G4) GGGGCTGAATTGGGGGGGAAAACGAGACGGG
Put plainly: thioflavin T fluorescence. As to conditions: 100 mM KCl; 10 mM sodium cacodylate, pH 7.4; 4 µM DNA, 1 µM dye; background without DNA 1154.

The subject of experiment [17] is aspf2 (DNA, G4) GGGGACGGGGGAGGTAGGGAGGG
The experiment is described as follows: thioflavin T fluorescence. As to conditions: 100 mM KCl; 10 mM sodium cacodylate, pH 7.4; 4 µM DNA, 1 µM dye; background without DNA 1154.

Experiment [18] deals with aspf28 (DNA, G4) GGGTTGCGAGGGAAGGAGGGGCGGG
The experiment is described as follows: thioflavin T fluorescence. As to conditions: 100 mM KCl; 10 mM sodium cacodylate, pH 7.4; 4 µM DNA, 1 µM dye; background without DNA 1154.

The subject of experiment [19] is gstA (DNA, G4) GGGCTGGGTGGCGGCCGCTGGTTGGGCGGG
Put plainly: thioflavin T fluorescence. The note with it: 100 mM KCl; 10 mM sodium cacodylate, pH 7.4; 4 µM DNA, 1 µM dye; background without DNA 1154.

Experiment [20] relates to yap1 (DNA, G4) GGGATGGGCTTCCCAAGTCGGGGAGAGGG
Put plainly: thioflavin T fluorescence. As to conditions: 100 mM KCl; 10 mM sodium cacodylate, pH 7.4; 4 µM DNA, 1 µM dye; background without DNA 1154.

Experiment [21] concerns skn7 (DNA, single strand) GGGGGGGGGGTGGG
The experiment is described as follows: thioflavin T fluorescence. As to conditions: 100 mM KCl; 10 mM sodium cacodylate, pH 7.4; 4 µM DNA, 1 µM dye; background without DNA 1154.

The test system of experiment [22] is pes1 (DNA, G4) GGGAGCAAGGGGAAATCGCTGAGGGTGGG
The experiment is described as follows: thioflavin T fluorescence. As to conditions: 100 mM KCl; 10 mM sodium cacodylate, pH 7.4; 4 µM DNA, 1 µM dye; background without DNA 1154.

Experiment [23] relates to atrF (DNA, G4) GGGTATTTGTTTGGGGGGATGGG
The experiment is described as follows: thioflavin T fluorescence. The note with it: 100 mM KCl; 10 mM sodium cacodylate, pH 7.4; 4 µM DNA, 1 µM dye; background without DNA 1154.

Experiment [24] concerns abcB (DNA, G4) GGGGGTGGGCGTTGGGGCGGG
The experiment is described as follows: thioflavin T fluorescence. As to conditions: 100 mM KCl; 10 mM sodium cacodylate, pH 7.4; 4 µM DNA, 1 µM dye; background without DNA 1154.

The subject of experiment [25] is ste7 (DNA, G4) GGGAGGGACACAAAGAGGGGATAAGGAGGG
Put plainly: thioflavin T fluorescence. The note with it: 100 mM KCl; 10 mM sodium cacodylate, pH 7.4; 4 µM DNA, 1 µM dye; background without DNA 1154.

Experiment [26] concerns bck1 (DNA, G4) GGGCCTGGAGGGGGGCCCGGGG
The experiment is described as follows: thioflavin T fluorescence. The note with it: 100 mM KCl; 10 mM sodium cacodylate, pH 7.4; 4 µM DNA, 1 µM dye; background without DNA 1154.

Experiment [27] concerns pkaC1 (DNA, G4) GGGTTGTGGTGGGTGGAGGGATGGGG
Put plainly: thioflavin T fluorescence. The note with it: 100 mM KCl; 10 mM sodium cacodylate, pH 7.4; 4 µM DNA, 1 µM dye; background without DNA 1154.

The test system of experiment [28] is laeA (DNA, G4) GGGATGTGGGACAGGGATTTGGG
Put plainly: thioflavin T fluorescence. As to conditions: 100 mM KCl; 10 mM sodium cacodylate, pH 7.4; 4 µM DNA, 1 µM dye; background without DNA 1154.

Experiment [29] relates to gliN (DNA, G4) GGGGGGCGCTTGGCTGGGAAGGCGGTTGGG
The experiment is described as follows: thioflavin T fluorescence. The note with it: 100 mM KCl; 10 mM sodium cacodylate, pH 7.4; 4 µM DNA, 1 µM dye; background without DNA 1154.

For experiment [30], the system named is ftmC (DNA, G4) GGGTCTGGAGCGCGGGGTTCGGGGATCGGG
The experiment is described as follows: thioflavin T fluorescence. The note with it: 100 mM KCl; 10 mM sodium cacodylate, pH 7.4; 4 µM DNA, 1 µM dye; background without DNA 1154.

In experiment [31] the test system is fks1 (DNA, G4) GGAAGGGGCTCGGGCATGGG
Put plainly: thioflavin T fluorescence. The note with it: 100 mM KCl; 10 mM sodium cacodylate, pH 7.4; 4 µM DNA, 1 µM dye; background without DNA 1154.

The test system of experiment [32] is mp1 (DNA, single strand) GGCTCCGGCTCCGGCTCCGG
Put plainly: thioflavin T fluorescence. As to conditions: 100 mM KCl; 10 mM sodium cacodylate, pH 7.4; 4 µM DNA, 1 µM dye; background without DNA 1154.

The test system of experiment [33] is chsG (DNA, G4) GGAGAGCGGGAGGTGGTGAGGG
The experiment is described as follows: thioflavin T fluorescence. The note with it: 100 mM KCl; 10 mM sodium cacodylate, pH 7.4; 4 µM DNA, 1 µM dye; background without DNA 1154.

Experiment [34] concerns ftmE (DNA, G4) GGGAGTGGGGATGGCGACGGGGAGCAGGG
Put plainly: thioflavin T fluorescence. As to conditions: 100 mM KCl; 10 mM sodium cacodylate, pH 7.4; 4 µM DNA, 1 µM dye; background without DNA 1154.

Experiment [35] concerns B DNA (DNA, single strand) GGCGCTATTCTCTGGTGCTGCT
The experiment is described as follows: thioflavin T fluorescence. The note with it: 100 mM KCl; 10 mM sodium cacodylate, pH 7.4; 4 µM DNA, 1 µM dye; background without DNA 1154.

Experiment [36] concerns Telomere (DNA, G4) TTAGGGTTAGGGTTAGGGTTAGGGTT
The experiment is described as follows: thioflavin T fluorescence. The note with it: 100 mM KCl; 10 mM sodium cacodylate, pH 7.4; 4 µM DNA, 1 µM dye; background without DNA 1154.

Consider `C[n+]1cc(NC(=O)c2ccc3ccc4ccc(C(=O)Nc5cc6ccccc6[n+](C)c5)nc4c3n2)cc2ccccc21`, for which the values for the K in experiment [1] and in experiment [2] were 32.7 ± 3.3 µM and 32.5 ± 1.8 µM, respectively.
As for `Cc1ccc2c(c1)sc(-c1ccc(N(C)C)cc1)[n+]2C`, the Fluorescence in [3] is listed as 50,100 ± 17 a.u; in experiment [4], 82,140 ± 54 a.u; in [5], 67,230 ± 34 a.u; in [6], 62,145 ± 13 a.u; in experiment [7] it was 34,409 ± 10 a.u; in [8], 148,303 ± 33 a.u. The Fluorescence is listed as 37,691 ± 7 a.u in [9]; 71,126 ± 17 a.u in experiment [10]; 149,474 ± 14 a.u in [11]; 47,933 ± 12 a.u in [12]; 81,452 ± 19 a.u in experiment [13]; 26,023 ± 6 a.u in [14]. The Fluorescence in [15] is on record as 86,442 ± 9 a.u; in experiment [16] it was 56,161 ± 21 a.u; in experiment [17], 87,449 ± 40 a.u; in experiment [18] it was 71,548 ± 13 a.u; in [19], 56,709 ± 4 a.u; in experiment [20] it was 69,030 ± 18 a.u. Besides, the Fluorescence in experiment [21] is recorded as 7173 ± 6 a.u; in [22] it was 129,161 ± 40 a.u; in experiment [23], 64,599 ± 9 a.u; in experiment [24], 28,763 ± 5 a.u; in experiment [25], 126,709 ± 54 a.u; in [26], 73,174 ± 7 a.u. Also, the Fluorescence in experiment [27] is listed as 62,347 ± 4 a.u; in [28], 50,899 ± 9 a.u; in [29], 134,267 ± 16 a.u; in experiment [30] it was 66,613 ± 9 a.u; in experiment [31] it was 72,302 ± 9 a.u; in experiment [32] it was 9852 ± 22 a.u. The Fluorescence in [33] was 38,112 ± 15 a.u; in [34] it was 105,384 ± 10 a.u; in experiment [35] it was 8808 ± 6 a.u; in experiment [36], 100,859 ± 19 a.u.
